The target of the assay is T1, bPGM5 (Baltic herring PGM5) (Clupea harengus, UniProt A0A6P3VN15).
T1 construct: full length, 567 residues; codon-optimized, E. coli BL21(DE3), pNIC28-Bsa4, N-terminal TEV-cleavable His6-tag (kept in crystals, removed for DSF); monomer; Ser121 phosphorylated in crystal
Description: X-ray crystal structure, […] Å. It counts as binding. The note with it: active site; His6-tagged protein with phosphorylated Ser121, metal modelled as Ni2+; crystals soaked overnight with 5 mM glucose-1,6-bisphosphate, observed ligand is G1P; pH 6.5.

Consider one compound from article PMC7761743, “Structure and Characterization of Phosphoglucomutase 5 from Atlantic and Baltic Herring—An Inactive Enzyme with Intact Substrate Binding” (Biomolecules, 2020).

T1 sequence (A0A6P3VN15 entry or part of it): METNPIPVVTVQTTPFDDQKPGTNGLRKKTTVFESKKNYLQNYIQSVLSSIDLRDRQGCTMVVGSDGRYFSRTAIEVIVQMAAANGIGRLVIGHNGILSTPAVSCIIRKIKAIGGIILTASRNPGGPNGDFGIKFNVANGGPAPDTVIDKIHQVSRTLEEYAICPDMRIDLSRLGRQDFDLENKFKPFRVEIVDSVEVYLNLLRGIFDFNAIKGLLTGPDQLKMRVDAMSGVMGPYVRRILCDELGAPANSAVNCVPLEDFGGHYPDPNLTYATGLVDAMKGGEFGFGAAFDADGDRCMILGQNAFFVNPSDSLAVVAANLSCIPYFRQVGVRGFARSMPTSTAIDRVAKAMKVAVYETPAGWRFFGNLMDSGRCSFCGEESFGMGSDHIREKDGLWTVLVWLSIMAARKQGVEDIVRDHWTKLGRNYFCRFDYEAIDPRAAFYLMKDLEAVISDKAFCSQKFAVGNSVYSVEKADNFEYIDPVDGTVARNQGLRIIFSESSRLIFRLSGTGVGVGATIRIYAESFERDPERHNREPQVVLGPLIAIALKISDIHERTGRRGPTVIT

As to `O=P(O)(O)O[C@H]1O[C@H](CO)[C@@H](O)[C@H](O)[C@H]1O` [G1P, glucose-1-phosphate], the “X-ray crystal structure, 1.95 Å” value is reported as “the observed ligand is G1P instead of the G16P that was used in crystallization”.
